# Measured values from patent US20210128537A1, “T-TYPE CALCIUM CHANNEL MODULATORS AND METHODS OF USE THEREOF” (Praxis Precision Medicines, inc., priority 2016, published 2021).
# What was measured:
# [1] = test system: GAERS nRT T-type Ca2+ channel currents (mixed CaV3.2/CaV3.3 current); assay: Thalamic slice whole-cell voltage-clamp recordings of nRT T-type Ca2+ channel currents; assay type: cell-based, rat; design: dose or concentration left out as unconfirmed; conditions: and wash off
# [2] = test system: Wistar rats, amygdala kindling; assay: Progression of seizures in the amygdala kindling model; assay type: in vivo, rat
# Experimental: Animals were implanted with EEG recording electrodes and with a stimulating bipolar electrode in the left basolateral amygdaloid nucleus using the coordinates AP±3.0 mm, ML±5.9 mm, DV±6.0 mm. The after discharge threshold (ADT) for each animal was determined by administering a stimulation (frequency=60.1 Hz; duration=1000 μs) at one minute intervals until a seizure was clicited. The amplitude of the stimulation was started at 0.02 mA with increments of 0.02 mA; the stimulations were stopped when the animal experienced a seizure of ≥6 second duration, or if the amplitude of 0.40 mA was reached without the occurrence of a seizure. […] Kindling was performed twice a day for five days per week with an endpoint of 30 stimulations or until the animal presented five class V seizures (referred to as fully kindled). The seizure severity was classified from 0 (less severe) to V (most severe) according to the Racine Scale (Racine, 1972b). Sham kindled animals were handled the same way as the kindled animals, although no electrical stimulation was applied. An animal is classified as fully kindled once it has experienced 5 class V seizures.
# Testing Z944 in the progression of seizures in the amygdala kindling model Wistar rats underwent surgery to implant bipolar stimulation electrodes and EEG recording electrodes as described above. ADT was determined as described for the anti-seizure study. Animals were randomly assigned to four different cohorts; Cohort 1: kindled sham+vehicle (n=8); Cohort 2: kindled+vehicle (n=6); Cohort 3: kindled+ETX (100 mg/kg, n=6) and Cohort 4: kindled+Z944 (30 mg/kg, n=7). Thirty minutes prior each kindling stimulation, the animals received an IP injection of vehicle, ETX, or Z944 administered at a dose volume of 5 ml/kg up to an endpoint of 30 stimulations and the seizure class elicited and seizure duration was recorded. […] Adverse effects were recorded every 15 minutes from the drug administration until 90 minutes after. An investigator blinded to the drug treatment analyzed all EEG recordings. The seizure class each stimulation elicited was recorded and averaged and the duration of the primary and total seizures were recorded.
# [3] = test system: GAERS (genetic rat model of GGE with absence seizures); assay: Systemic administration in GAERS, EEG spike-and-wave discharges; assay type: in vivo; conditions: 30 mg/kg intraperitoneal; shift from 8 Hz with ethosuximide 100 mg/kg and vehicle
# Experimental: In vivo anti-seizure activity of Z941 and Z944 was assessed in eight female epileptic GAERS (180 to 250 g and 18 to 26 weeks). Rats were implanted with extradural recording electrodes. EEG data were acquired at a sampling rate of 256 Hz unfiltered using Compumedics ProFusion digital EEG acquisition software. After 60-min habituation, rats received intraperitoneal injections of drug, and after a further 15 min, the EEG was acquired for 120 min—the test period. […] Over a 5-week period, each rat received all treatments (crossover design) in a randomized manner with a 48-hour washout period between dosing of test compound, control vehicle, and positive control articles. […] Clinical observations of neurotoxic adverse effects were assessed every 15 min throughout the 120-min test period. These were quantified according to an ordinal scale of 0 to 4: 0, no sedation, normal movement; 1, slight sedation, slow movement but alert when startled; 2, mildly sedate, reduced struggle to restraint; 3, sedate, not moving in cage, but does respond to provocation; 4, very sedate, catatonic and unable to stand when provoked. The eight scores (taken for one experiment per rat) were then averaged, and group means were calculated for each treatment. Animals were also monitored daily for general health throughout the study period (that is, weight gain and fur condition). […]
# post-SE rats = assay: Kainic acid induced post-status epilepticus model, video-EEG seizure analysis; assay type: in vivo, rat
# Experimental: Pumps were filled with either Z944 to deliver a daily dose of 60 mg/kg, levetiracetam to deliver a daily dose of 200 mg/kg or vehicle. For the drug tolerability study, osmotic pumps continuously either Z944, levetiracetam or vehicle for 7 days and for the post-SE study osmotic pumps delivered continuously the different treatments for 28 days.
# FIG. 11 summarizes the different methods used on this experimental paradigm.
# Animals were implanted with subdural EEG recording electrodes and one week after surgery, the animals were connected using cables that allowed them free movement around their cage. A repeated low dose KA administration protocol was used. Rats were injected i.p. with an initial dose of KA 7.5 mg/kg plus 3 ml of normal saline to prevent dehydration. Animals were monitored for 45 minutes for EEG and behavioural seizures based on the Racine scale. […] This was repeated up to 2 times every 45 minutes. An animal was eliminated from the experiment if it didn't show a stable self-sustained SE after a maximum KA total dose of 15 mg/kg. Two sham groups were treated identically but received saline injections instead of KA. After four hours of sustained electroencephalographic and behavioural seizures the animals were randomly allocated to one of the five treatment groups: sham+vehicle (n=6), sham+Z944 (n=6), post-SE+vehicle (n=8), post-SE+Z944 (n=8), post-SE+levetiracetam (n=9).
# Animals were anesthetized and implanted with subcutaneous osmotic pumps containing either vehicle Z944 (60 mg/kg/day), or levetiracetam (200 mg/kg/day) that delivered the treatment continuously for 4 weeks. Immediately after the pump implantation, SE was stopped with diazepam (5 mg/kg/dose).
# vEEG recordings commenced at least 4 h prior the induction of SE to provide baseline recordings. The video-EEG recordings continued for the whole duration of the treatment period, i.e. four weeks after the termination of the SE. […] EEG analysis was performed in a blinded manner and confirmed by two different observers. All EEG recordings were visually and manually annotated using Profusion 3 software. A seizure was defined as an episode of rhythmic spiking activity that was three times the baseline amplitude and a frequency >5 Hz that lasted at least 10 s. The end of a seizure was determined as the last spike. The average number of seizures per day, average seizure duration and seizure class (severity) were analysed.
compound,measurement,setting,value
CC(C)(C)NC(=O)CN1CCC(CNC(=O)c2cc(F)cc(Cl)c2)CC1 [Z944],reversibility of inhibition of GAERS nRT T-type Ca2+ channel currents,[1],nonreversible inhibition
same,"number of stimulations to evoke a class III, IV or V seizure","[2]; 30 mg/kg IP 30 min prior each stimulation, vs vehicle",required significantly more stimulations
same,number of treated animals that reached the fully kindled state,"[2]; 30 mg/kg IP, n=7, up to 30 stimulations",one
same,number of stimulations to reach class V,"[2]; 30 mg/kg IP, vs ETX 100 mg/kg (p<0.01)",required more stimulations
same,number of stimulations to reach the fully kindled state,"[2]; 30 mg/kg IP, vs vehicle (p<0.01) and ETX (p<0.05)",required significantly more stimulations
same,peak cycle frequency power during seizure activity (FFT),[3],6.5 Hz
same,"seizures on EEG after drug washout (seizures per day, duration, severity)","post-SE rats; 60 mg/kg/day for 4 weeks, EEG after 4 weeks from drug washout",Anti-Epileptogenic
same,"seizures on EEG during treatment (seizures per day, duration, severity)","post-SE rats; 60 mg/kg/day, during the 4 weeks of continuous treatment after SE",Anti-Epileptogenic Effects
same,number of seizures in each animal that developed seizures,post-SE rats; in two weeks of vEEG after drug washout,one
same,neurological adverse effects after prolonged treatment,"post-SE rats; osmotic pump 4 weeks, Z944 60 mg/kg/day, levetiracetam 200 mg/kg/day",only transient and minor neurological adverse effects
same,treated animals that developed seizures,"post-SE rats; two weeks of vEEG after 4 weeks drug washout, n=8",two of the eight
